“Also recorded” adds a separate entry of the source. Like-named read-outs stand apart in the source and are kept apart here.

One data set concerns Ulva pertusa. The arrangement: method as in doi:10.3989/scimar.04638.13A. The note with it: cited from earlier work.
Data set [1] has as its system Roseobacter litoralis CECT 5395. The experiment in a line: Biofilm-forming marine bacteria growth inhibition. The class given is cell-based. The note with it: for EC50: Roseobacter litoralis, CECT5395; for R. litoralis biofilm growth inhibition: screening at 15 μM, 24 h, vs negative control (Dunnett, p < 0.01). As for the experimental part: Five strains of marine biofilm-forming bacteria from the Spanish Type Culture Collection (CECT): Cobetia marina CECT 4278, Vibrio harveyi CECT 525, Halomonas aquamarina CECT 5000, Pseudoalteromonas atlantica CECT 570, and Roseobacter litoralis CECT 5395 were selected for antibacterial screening. The experimental procedure was performed according to the previously reported. Briefly, bacteria were inoculated and incubated for 24 h at 26 °C in marine broth (Difco) at an initial density of 0.1 (OD600) in 96-well flat-bottom microtiter plates and exposed to the test compounds at 15 μM. Bacterial growth inhibition in the presence of the compounds was determined in quadruplicate at 600 nm using a microplate reader (BioTek Synergy HT, Winooski, VT, USA). Negative and positive controls used were a solution of marine broth with 0.1% DMSO, and a solution of marine broth with penicillin–streptomycin–neomycin, respectively. Bacterial growth inhibition calculations were made based in the formula ((Mc–Mt)/Mc) × 100, where Mc is the mean of the four replicates from negative control, and Mt is the mean of four replicates from each of the tested compounds.
(§1) Data from anti-settlement, antibacterial, and anti-microalgal bioassay were analyzed by one-way analysis of variance (ANOVA), followed by a multi-comparisons Dunnett’s test against negative control. For all of the bioassays, the half-maximum response concentration (EC50) values for each compound, when applicable, were calculated using probit regression analysis. Significance was considered at p < 0.01, and 95% lower and upper confidence limits (95% LCL; UCL). The software IBM SPSS Statistics 26 (Armonk, New York, NY, USA) was used for statistical analysis.

A short description of data set [2]: Mussel larvae anti-settlement bioassay. The format is in vivo. The note with it: Mytilus galloprovincialis (mussel) plantigrade larvae, in vivo; mussel plantigrade larvae; highest concentration tested 200 μM; read-out: LC50 (µM), median lethal dose. The procedure:
(§2) Mussel (Mytilus galloprovincialis) plantigrades were collected in juvenile aggregates during low neap tides at Memória beach, Matosinhos, Portugal (41°13′59″ N; 8°43′28″ W). In the laboratory, mussel plantigrade larvae (0.5–2 mm) were isolated in a binocular magnifier (Olympus SZX2-ILLT, Tokyo, Japan) to a petri dish with filtered seawater, and those with functional foot and competent exploring behavior were selected to the bioassays. Compounds were screened at 50 µM in 24-well microplates with 4-well replicates per condition and 5 larvae per well, for 15 h, in the darkness at 18 ± 1 °C, according to the previously reported. All compounds that caused more than 60% of settlement inhibition (≤40% of settlement) in the screening bioassay were considered active and selected for the determination of the semi-maximum response concentration that inhibited 50% of the larval settlement (EC50), at compounds concentrations of 3.125, 6.25, 12.5, 25, 50, 100, and 200 μM.
as §1

In data set [3] the test system is Mytilus galloprovincialis plantigrade larvae. The experiment in a line: Mussel larvae anti-settlement bioassay. Particulars: for EC50: Mytilus galloprovincialis, dose-response 3.125-200 μM; for percentage of settlement: screening at 50 μM, 15 h. The class given is in vivo. As for the experimental part:
as §2, §1

In a further data set the test system is Navicula sp. Kind of data set: Biofilm-forming marine diatom growth inhibition. The format is cell-based. Particulars: for EC50: dose-response. The procedure: The anti-microalgal activity of the most promising compounds was also evaluated against a benthic marine diatom, Navicula sp., purchased from the Spanish Collection of Algae (BEA), according to the previously reported. Briefly, diatom cells were inoculated in f/2 medium (Sigma) at an initial concentration of 2–4 × 10^6 cells·mL^−1 and grown in 96-well flat-bottom microtiter plates for 14 days in continuous light at 20 °C. […] Growth inhibition was calculated based in the formula ((Mc–Mt)/Mc) × 100, where Mc is the mean of the cell counts of the four replicates from negative control, and Mt is the mean of the cell counts of the four replicates from each of the tested compounds. Positive control with cycloheximide (3.55 μM) and negative control with f/2 medium 0.1% DMSO were included.
as §1

In data set [4] the test system is Artemia salina nauplii. Kind of data set: Artemia salina nauplii lethality ecotoxicity bioassay. The format is in vivo. The note with it: 25 and 50 μM, 48 h exposure. The procedure: The brine shrimp (Artemia salina) nauplii lethality test was used to determine the ecotoxicity of 6a, 7a, and 9a to non-target organisms. Briefly, Artemia salina eggs were allowed to hatch in seawater for 48 h at 25 °C. Bioassays were performed in 96-well microplates with 15–20 nauplii per well and 200 μL of the compounds test solution. Test solutions were prepared in filtered seawater at concentrations of 25 and 50 μM. All tests included K2Cr2O7 as positive control and DMSO as a negative control. Bioassays run in the dark at 25 °C, and the percentage of mortality was determined after 48 h of exposure.

Data set [5] deals with Artemia salina nauplii. Further details: method as in PMID 31669574. Particulars: 25 and 50 μM; cited from earlier work.
Where [6] appears, read: dose-response, read-out: EC50 (µM), R. litoralis growth.
The mark [7] stands for this setting: dose-response, read-out: EC50 (µg·mL^−1), R. litoralis growth.
[8] abbreviates: 95% CI in brackets, read-out: EC50 (µM), concentration that inhibited 50% of larval settlement.

Consider `CC(=O)c1ccc(O)cc1O` [2,4-dihydroxyacetophenone], for which, in the data set with Ulva pertusa, the “inhibition of spore attachment” value is on record as “significantly inhibit”.

The compound `COc1cc(C(C)=O)cc(OC)c1OCc1cn(Cc2ccc(C#N)cc2)nn1` [Compound 3a, 4-((4-((4-Acetyl-2,6-dimethoxyphenoxy)methyl)-1H-1,2,3-triazol-1-yl)methyl)benzonitrile] showed a melting point of 149.5 to 149.8 °C.

With `CC(=O)c1ccc(OCc2cn(Cc3ccc(C#N)cc3)nn2)cc1O` [Compound 3b, 4-((4-((4-Acetyl-3-hydroxyphenoxy)methyl)-1H-1,2,3-triazol-1-yl)methyl)benzonitrile], the melting point was in the range of 153.8 to 155.6 °C. For the same compound, in data set [1] (setting [6]), the EC50 was determined as 49.8 µM. Also, the EC50 in data set [1] (setting [7]) was found to be 17.4 µg/mL. Besides, in data set [1], the “R. litoralis biofilm growth inhibition” value is “significantly inhibit”.

`COc1cc(C(C)=O)cc(OC)c1OCc1cn(-c2ccc(F)cc2)nn1` [Compound 4a, 1-(4-((1-(4-Fluorophenyl)-1H-1,2,3-triazol-4-yl)methoxy)-3,5-dimethoxyphenyl)ethan-1-one] registered a melting point of 160 to 160.5 °C.

`CC(=O)c1ccc(OCc2cn(-c3ccc(F)cc3)nn2)cc1O` [Compound 4b, 1-(4-((1-(4-Fluorophenyl)-1H-1,2,3-triazol-4-yl)methoxy)-2-hydroxyphenyl)ethan-1-one] had a melting point of 145.9 to 148 °C. For the same compound, the EC50 in data set [1] (setting [6]) is 105 µM. Also, in data set [1] (setting [7]), the EC50 worked out at 34.4 µg/mL. The “R. litoralis biofilm growth inhibition” value in data set [1] is recorded as “significantly inhibit”.

`COc1cc(C(C)=O)cc(OC)c1OCc1cn(-c2ccc(Br)cc2)nn1` [Compound 5a, 1-(4-((1-(4-Bromophenyl)-1H-1,2,3-triazol-4-yl)methoxy)-3,5-dimethoxyphenyl)ethan-1-one]: the melting point fell in the range of 159.1 to 160.4 °C.

In turn, `CC(=O)c1ccc(OCc2cn(-c3ccc(Br)cc3)nn2)cc1O` [Compound 5b, 1-(4-((1-(4-Bromophenyl)-1H-1,2,3-triazol-4-yl)methoxy)-2-hydroxyphenyl)ethan-1-one] had a melting point of 183.3 to 184.8 °C.

On to `COc1cc(C(C)=O)cc(OC)c1OCc1cn(-c2ccc(Cl)cc2)nn1` [Compound 6a, 1-(4-((1-(4-Chlorophenyl)-1H-1,2,3-triazol-4-yl)methoxy)-3,5-dimethoxyphenyl)ethan-1-one], for which the LC50 at 15 h in data set [2] was > 200 µM. Further, the EC50 in data set [3] (setting [8]) was determined as 28.9 µM. Besides, in data set [3], the percentage of settlement was ≤ 40%.

`CC(=O)c1ccc(OCc2cn(-c3ccc(Cl)cc3)nn2)cc1O` [Compound 6b, 1-(4-((1-(4-Chlorophenyl)-1H-1,2,3-triazol-4-yl)methoxy)-2-hydroxyphenyl)ethan-1-one]: the melting point was 157 to 159.1 °C.

Take `COc1cc(C(C)=O)cc(OC)c1OCc1cn(CCCO)nn1` [Compound 7a, 1-(4-((1-(3-Hydroxypropyl)-1H-1,2,3-triazol-4-yl)methoxy)-3,5-dimethoxyphenyl)ethan-1-one]: the LC50 at 15 h in data set [2] was > 200 µM. In addition, the EC50 in data set [3] (setting [8]) is 40.1 µM; in data set [3] (read-out: EC50 (µg·mL^−1), larval settlement), < 25 µg/mL; in the data set on Navicula sp. (read-out: EC50 (µM), Navicula sp. growth), 26.7 µM; in the data set on Navicula sp. (read-out: EC50 (µg·mL^−1), Navicula sp. growth), 8.96 µg/mL. Besides, the percentage of settlement in data set [3] is on record as ≤ 40%. Further, in the data set with Navicula sp. (15 µM (Figure 5 legend), 14 days), the “Navicula sp. growth inhibition screening” value is “showed inhibitory activity”. In the data set on Artemia salina nauplii [4], the “mortality rate of Artemia salina nauplii” value is listed as “not significantly different from negative control; also recorded: non-toxic”.

In turn, `CC(=O)c1ccc(OCc2cn(CCCO)nn2)cc1O` [Compound 7b, 1-(2-Hydroxy-4-((1-(3-hydroxypropyl)-1H-1,2,3-triazol-4-yl)methoxy)phenyl)ethan-1-one] yielded a melting point of 69.2 to 70.5 °C. For the same compound, the “EC50 (µM), R. litoralis growth” value in data set [1] (dose-response) is listed as “not possible to estimate”. Also, in data set [1], the “R. litoralis biofilm growth inhibition” value was “significantly inhibit”.

`COc1ccc(-n2cc(COc3c(OC)cc(C(C)=O)cc3OC)nn2)cc1` [Compound 8a, 1-(3,5-Dimethoxy-4-((1-(4-methoxyphenyl)-1H-1,2,3-triazol-4-yl)methoxy)phenyl)ethan-1-one] yielded a melting point of 99.5 to 102.3 °C.

In turn, `COc1ccc(-n2cc(COc3ccc(C(C)=O)c(O)c3)nn2)cc1` [Compound 8b, 1-(2-Hydroxy-4-((1-(4-methoxyphenyl)-1H-1,2,3-triazol-4-yl)methoxy)phenyl)ethan-1-one] came in with a melting point of 115.1 to 117.5 °C.

For `COc1cc(C(C)=O)cc(OC)c1OCc1cn([C@H]2O[C@@H](CO)[C@H](O)[C@@H](O)[C@@H]2NC(C)=O)nn1` [Compound 9a, N-((2S,3S,4S,5R,6S)-2-(4-((4-Acetyl-2,6-dimethoxyphenoxy)methyl)-1H-1,2,3-triazol-1-yl)-4,5-dihydroxy-6-(hydroxymethyl)tetrahydro-2H-pyran-3-yl)acetamide], the LC50 at 15 h in data set [2] is > 200 µM. Moreover, the EC50 in data set [3] (setting [8]) was 20.7 µM. The percentage of settlement in data set [3] is given as ≤ 40%. In the data set on Artemia salina nauplii [4], the “mortality rate of Artemia salina nauplii” value is “not significantly different from negative control; also recorded: non-toxic”.

`N#Cc1c(-c2ccc(Cl)cc2)[nH]c(C(F)(F)F)c1Br` [ECONEA®]: the “lethality to Artemia salina” value with Artemia salina nauplii [5] was 100%.

The values are drawn from article PMC8704891, “Natural Benzo/Acetophenones as Leads for New Synthetic Acetophenone Hybrids Containing a 1,2,3-Triazole Ring as Potential Antifouling Agents” (Marine Drugs, 2021).
